Measured values from patent US20240424111A1, “Degrader Compounds and Uses Thereof” (CALICO LIFE SCIENCES LLC, priority 2021, published 2024).

How the values were obtained:
PTPN2 [1] = molecular target: T1, PTPN2 (Mus musculus, UniProt Q06180); experiment: HiBiT PTPN2 degradation in B16F10.4 cells, 24 hours; format: cell-based
T1 construct: HiBiT; host or cells: B16F10.4
T1 sequence (Q06180 1-406): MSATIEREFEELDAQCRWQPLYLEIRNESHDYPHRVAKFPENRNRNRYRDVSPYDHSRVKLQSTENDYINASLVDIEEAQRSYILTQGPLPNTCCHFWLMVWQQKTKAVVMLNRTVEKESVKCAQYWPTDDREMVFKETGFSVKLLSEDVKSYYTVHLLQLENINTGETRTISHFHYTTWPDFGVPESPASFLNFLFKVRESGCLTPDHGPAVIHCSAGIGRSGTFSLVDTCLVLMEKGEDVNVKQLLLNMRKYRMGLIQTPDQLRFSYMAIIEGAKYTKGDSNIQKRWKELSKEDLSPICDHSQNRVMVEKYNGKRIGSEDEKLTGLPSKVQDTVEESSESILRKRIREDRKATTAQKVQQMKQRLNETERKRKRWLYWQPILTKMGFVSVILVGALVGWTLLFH
Protocol: (§1) PTPN2 degradation was determined based on quantification of luminescent signal using Nano-Glo® HiBiT Lytic Assay kit. Test compounds were added to the 384-well plate from a top concentration of 10 μM with 11 points, half log titration in duplicates. 293T. 109 cells were added into 384-well plates at a cell density of 5000 cells per well. The plates were kept at 37° C. with 5% CO2 for 24 hours. The cells treated in the absence of the test compound were the negative control and the cells without Nano-Glo® HiBiT Lytic reagent were the positive control. After 24-hour incubation, Nano-Glo® HiBiT Lytic Assay reagents were added to the cells. Luminescence was acquired on EnVision™ Multilabel Reader (PerkinElmer, Santa Clara, CA, USA).

PTPN2 [2] = molecular target: T2, PTPN2 (Homo sapiens, UniProt P17706); experiment: HiBiT PTPN2 degradation in 293T.109 (HiBiT-PTPN2) cells, 24 hours; format: cell-based; conditions: 293T.109 cells
T2 construct: expressed in transfected cells; host or cells: 293T.109 (HiBiT-PTPN2), derived from 293T WT (ATCC)
T2 sequence (P17706 1-415): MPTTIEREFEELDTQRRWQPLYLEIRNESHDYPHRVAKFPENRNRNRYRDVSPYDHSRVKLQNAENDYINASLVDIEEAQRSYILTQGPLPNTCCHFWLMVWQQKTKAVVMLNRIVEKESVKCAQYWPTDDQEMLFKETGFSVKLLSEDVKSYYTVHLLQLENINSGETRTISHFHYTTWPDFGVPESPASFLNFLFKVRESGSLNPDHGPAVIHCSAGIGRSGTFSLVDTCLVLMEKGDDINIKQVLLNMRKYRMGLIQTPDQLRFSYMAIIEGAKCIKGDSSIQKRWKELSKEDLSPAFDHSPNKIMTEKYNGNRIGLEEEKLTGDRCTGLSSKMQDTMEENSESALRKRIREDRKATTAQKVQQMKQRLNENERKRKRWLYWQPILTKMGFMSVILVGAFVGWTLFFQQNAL
From the text: Dulbecco's modified Eagle medium (DMEM) without phenol red and fetal bovine serum (FBS) were purchased from Gibco (Grand Island, NY, USA). Nano-Glo® HiBiT Lytic Assay System was purchased from Promega (Medison, WI, USA). 293T. 109 (HiBiT-PTPN2) cell line was generated by ectopically expressing PTPN2 with N-terminal HiBiT fusion tag in 293T WT cell line purchased from ATCC (Manassas, VA, USA). Cell culture flasks and 384-well microplates were acquired from VWR (Radnor, PA, USA).
PTPN2 Degradation Analysis
as §1

DC50 (PTPN2 [1])	DC50 (PTPN2 [2])	SMILES
≥ 500 nM	150 to 500 nM	Cn1c(=O)n(C2CCC(=O)NC2=O)c2ccc(-c3cccc(CC(=O)Nc4ccc5c(F)c(N6CC(=O)NS6(=O)=O)c(O)cc5c4)c3)cc21 (centres unmarked) [Degrader 77]
≥ 500 nM	150 to 500 nM	Cn1c(=O)n(C2CCC(=O)NC2=O)c2ccc(C3CCN(C/C=C/c4ccc5c(F)c(N6CC(=O)NS6(=O)=O)c(O)cc5c4)CC3)cc21 (centres unmarked) [Degrader 78]
50 to 150 nM	50 to 150 nM	Cc1cc(-c2ccc3c(c2)n(C)c(=O)n3C2CCC(=O)NC2=O)ccc1CC(=O)Nc1ccc2c(F)c(N3CC(=O)NS3(=O)=O)c(O)cc2c1 (centres unmarked) [Degrader 79]
150 to 500 nM	< 50 nM	Cn1c(=O)n(C2CCC(=O)NC2=O)c2ccc(-c3cccc(CCC(=O)Nc4ccc5c(F)c(N6CC(=O)NS6(=O)=O)c(O)cc5c4)c3)cc21 (centres unmarked) [Degrader 80]
50 to 150 nM	50 to 150 nM	Cc1cc(CC(=O)Nc2ccc3c(F)c(N4CC(=O)NS4(=O)=O)c(O)cc3c2)ccc1Oc1ccc2c(c1)n(C)c(=O)n2C1CCC(=O)NC1=O (centres unmarked) [Degrader 81]
150 to 500 nM	150 to 500 nM	Cn1cc(C(=O)Nc2ccc3c(F)c(N4CC(=O)NS4(=O)=O)c(O)cc3c2)c2ccc(-c3ccc4c(c3)n(C)c(=O)n4C3CCC(=O)NC3=O)cc21 (centres unmarked) [Degrader 82]
< 50 nM	< 50 nM	Cn1c(=O)n(C2CCC(=O)NC2=O)c2ccc(-c3cc4cnn(CC(=O)Nc5ccc6c(F)c(N7CC(=O)NS7(=O)=O)c(O)cc6c5)c4cc3F)cc21 (centres unmarked) [Degrader 83]
150 to 500 nM	50 to 150 nM	Cn1c(=O)n(C2CCC(=O)NC2=O)c2ccc(N3CCC4(CC3)CN(CC(=O)Nc3ccc5c(F)c(N6CC(=O)NS6(=O)=O)c(O)cc5c3)C4)cc21 (centres unmarked) [Degrader 84]
150 to 500 nM	150 to 500 nM	Cc1nn(C2CCC(=O)NC2=O)c2ccc(-c3ccc(CC(=O)Nc4ccc5c(F)c(N6CC(=O)NS6(=O)=O)c(O)cc5c4)cc3)cc12 (centres unmarked) [Degrader 85]
≥ 500 nM	≥ 500 nM	O=C1CCC(n2c3ccc(CCCCNC(=O)Nc4ccc5c(F)c(N6CC(=O)NS6(=O)=O)c(O)cc5c4)cc3c3cccnc32)C(=O)N1 (centres unmarked) [Degrader 86]
50 to 150 nM	50 to 150 nM	Cc1cc(CC(=O)Nc2ccc3c(F)c(N4CC(=O)NS4(=O)=O)c(O)cc3c2)ccc1N(C)c1ccc2c(c1)n(C)c(=O)n2C1CCC(=O)NC1=O (centres unmarked) [Degrader 87]
≥ 500 nM	150 to 500 nM	Cn1c(=O)n(C2CCC(=O)NC2=O)c2ccc(-n3ccc(CC(=O)Nc4ccc5c(F)c(N6CC(=O)NS6(=O)=O)c(O)cc5c4)n3)cc21 (centres unmarked) [Degrader 88]
50 to 150 nM	50 to 150 nM	Cn1c(=O)n(C2CCC(=O)NC2=O)c2ccc(N3CCC(CNC(=O)Nc4ccc5c(F)c(N6CC(=O)NS6(=O)=O)c(O)cc5c4)CC3)cc21 (centres unmarked) [Degrader 89]
50 to 150 nM	150 to 500 nM	C[C@H]1CN(c2ccc3c(c2)n(C)c(=O)n3C2CCC(=O)NC2=O)CCN1CC(=O)Nc1ccc2c(F)c(N3CC(=O)NS3(=O)=O)c(O)cc2c1 (some centres unmarked) [Degrader 90]
150 to 500 nM	50 to 150 nM	C[C@@H]1CN(c2ccc3c(c2)n(C)c(=O)n3C2CCC(=O)NC2=O)CCN1CC(=O)Nc1ccc2c(F)c(N3CC(=O)NS3(=O)=O)c(O)cc2c1 (some centres unmarked) [Degrader 91]
≥ 500 nM	150 to 500 nM	Cn1c(=O)n(C2CCC(=O)NC2=O)c2ccc(N3CC4(CCN(CC(=O)Nc5ccc6c(F)c(N7CC(=O)NS7(=O)=O)c(O)cc6c5)CC4)C3)cc21 (centres unmarked) [Degrader 92]
50 to 150 nM	50 to 150 nM	Cn1c(=O)n(C2CCC(=O)NC2=O)c2ccc(N3CCN(CNC(=O)Nc4ccc5c(F)c(N6CC(=O)NS6(=O)=O)c(O)cc5c4)CC3)cc21 (centres unmarked) [Degrader 93]
50 to 150 nM	150 to 500 nM	Cc1cc(C(C)C(=O)Nc2ccc3c(F)c(N4CC(=O)NS4(=O)=O)c(O)cc3c2)ccc1Nc1ccc2c(c1)n(C)c(=O)n2C1CCC(=O)NC1=O (centres unmarked) [Degrader 94]
< 50 nM	< 50 nM	Cc1nn(CC(=O)Nc2ccc3c(F)c(N4CC(=O)NS4(=O)=O)c(O)cc3c2)c2ccc(-c3ccc4c(c3)n(C)c(=O)n4C3CCC(=O)NC3=O)cc12 (centres unmarked) [Degrader 95]
